Data taken from patent publication US20090247497A1, “FORMULATION AND USE OF ERGOSTA-7,22-DIEN-3BETA-OL” (priority 2008, published 2009).

Test system: human promyelocytic leukemia HL-60 cells
Assay: in vivo anti-tumor (anti-leukemia) study, HL-60 xenografts in nude mice
Design: species or system Athymic nude mice (BALB/c nu/nu)
Conditions: for % inhibition for 1.5 mg/kg/day dosage group: 1.5 mg/kg/day oral (gastric gavage), from relative tumor weight vs control
Procedure: The following study on nude mice was conducted to investigate the in vivo anti-tumor activities, specifically the anti-leukemia effects, of ergosta-7,22-dien-3β-ol.
Athymic nude mice (BALB/c nu/nu, with body weight of 20-25 g and aged 6-10 weeks) were kept in autoclaved cages with polyester fiber filters to avoid contact with the pathogens. All the animal diet and tap water were autoclaved before feeding to nude mice ad libitum.
Suspension of 1×10^7 of human promyelocytic leukemia HL-60 cells was then injected subcutaneously (s.c.) into the dorsal side of nude mice.
In this study, the tested item was the powders of ergosta-7,22-dien-3β-ol obtained according to the method described in Example 1 above.
When palpable tumors (about 100-200 mm^3 in volume) arose within 14-21 days after injection, the mice were randomly divided into three treatment groups and one control group in which each group consisted of 15 mice. Then, the mice in the treatment group were administrated with the tested item at three dose levels of 1.5, 15.0 or 50.0 mg (of tested item)/kg (of body weight of mouse)/day (in distilled water), while those mice in the control group were administrated with distilled water (as control vehicle). Both groups of mice were administrated by oral route (gastric gavage) daily (except Sundays) for up to 28 days. Tumor dimension was measured on every Mondays, Wednesdays and Fridays.
Tumor dimension was measured by Vernier caliper and tumor weight and tumor volume were calculated according to the following formulae:
Tumor weight (mg)=L×W^2×π/6; and
Tumor volume (mm^3)=L×W×H×π/6;
where L, W, and H were the major dimension, the minor dimension, and the height of the tumor respectively (π=3.1416).
The relative tumor weight was calculated by dividing the tumor weight on a certain day by the mean tumor weight on Day 1. Similarly, the relative tumor volume was calculated by dividing the tumor volume on a certain day by the mean tumor volume on Day 1.
Upon 28 days of administration, the nude mice were euthanized and the final body and tumor weights were recorded for calculating the ratio of the final tumor-to-body weight.
The above-shown results were expressed as the mean±SE of the percentage of inhibition of the tested item on the growth of HL-60 xenografts in nude mice in single experiments. Percentage of inhibition (for any Day n) was calculated from the following formula:
(1−relative tumor weight of treatment group on Day n/relative tumor weight of control group on Day n)×100%.

[1] = 1.5, 15.0 or 50.0 mg/kg/day oral, up to 28 days, all three treatment groups, 1.5 mg/kg/day most significant

SMILES: CC(C)[C@@H](C)/C=C/[C@@H](C)[C@H]1CC[C@H]2C3=CCC4C[C@@H](O)CC[C@]4(C)[C@H]3CC[C@]12C (stereo partly drawn) [ergosta-7,22-dien-3β-ol]
- Anti-tumor activity (1.5, 15.0 and 50.0 mg/kg/day oral, HL-60 xenografts in nude mice): observed at all three dosage groups
- percentage ratios of final tumor-to-body weight (1.5, 15.0 or 50.0 mg/kg/day oral, after 28 days, three treatment groups vs control, 1.5 mg/kg/day most significant): lower than that of the control group
- relative tumor volume [1]: some effects in the reductions
- relative tumor weight [1]: some effects in the reductions
- % inhibition for 1.5 mg/kg/day dosage group (Day 1, HL-60 xenografts in nude mice): 0.00%
- % inhibition for 1.5 mg/kg/day dosage group (Day 3, HL-60 xenografts in nude mice): 11.35%
- % inhibition for 1.5 mg/kg/day dosage group (Day 5, HL-60 xenografts in nude mice): 11.24%
- % inhibition for 1.5 mg/kg/day dosage group (Day 8, HL-60 xenografts in nude mice): 23.69%
- % inhibition for 1.5 mg/kg/day dosage group (Day 10, HL-60 xenografts in nude mice): 31.65%
- % inhibition for 1.5 mg/kg/day dosage group (Day 12, HL-60 xenografts in nude mice): 32.32%
- % inhibition for 1.5 mg/kg/day dosage group (Day 15, HL-60 xenografts in nude mice): 30.61%
- % inhibition for 1.5 mg/kg/day dosage group (Day 17, HL-60 xenografts in nude mice): 34.99%
- % inhibition for 1.5 mg/kg/day dosage group (Day 19, HL-60 xenografts in nude mice): 43.19%
- % inhibition for 1.5 mg/kg/day dosage group (Day 22, HL-60 xenografts in nude mice): 38.94%
- % inhibition for 1.5 mg/kg/day dosage group (Day 24, HL-60 xenografts in nude mice): 40.57%
- % inhibition for 1.5 mg/kg/day dosage group (Day 26, HL-60 xenografts in nude mice): 44.32%
